Reference: patent publication US11866518B2, “Bicyclic peptide ligands specific for TSLP” (BicycleTx Limited, priority 2020, dated 2024)
*1 amine or outer side, *2 acyl side, *3 side chain or, on linkers, in order; H or OH if unused. Where a SMILES comes first, the peptide text is derived from it. Bridges are numbered along the chain shown (N, C = ends). TATA = O=C(CC[*:1])N1CN(C(=O)CC[*:2])CN(C(=O)CC[*:3])C1

Molecular target: TSLP (Homo sapiens, UniProt Q969D9)
Test: Human TSLP Surface Plasmon Resonance (SPR) binding assay
Design: The resulting construct spCD33-6×HN-TEV-hTSLP(29-159)-Avi; 6xHN tag with TEV site (N, cleaved yes); made in house; host or cells: Expi293F cells
Settings: biotinylated human TSLP immobilized on streptavidin chip; 20° C.; steady-state or kinetic 1:1 fit; read-out: hTSLP SPR Kd

Chain of TSLP (Q969D9 29-159): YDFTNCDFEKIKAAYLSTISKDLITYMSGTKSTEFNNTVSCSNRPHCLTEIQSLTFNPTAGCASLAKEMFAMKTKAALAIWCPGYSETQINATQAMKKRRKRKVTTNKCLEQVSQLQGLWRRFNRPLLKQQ

Structure (SMILES)	Kd
CC(C)C[C@@H]1NC(=O)[C@H](Cc2c[nH]c3ccccc23)NC(=O)[C@H](CCC(N)=O)NC(=O)[C@@H](NC(=O)CNC(=O)[C@@H](NC(=O)[C@H](CCC(=O)O)NC(=O)[C@H](CC(=O)O)NC(=O)[C@@H](NC(=O)[C@@H](N)CCCNC(=N)N)[C@@H](C)O)[C@@H](C)O)CSCCC(=O)N2CN3CN(C2)C(=O)CCSC[C@H](NC(=O)[C@H](CC(=O)O)NC(=O)[C@H](CCC(=O)O)NC1=O)C(=O)N[C@@H](Cc1c[nH]c2ccccc12)C(=O)N[C@@H](CCCNC(=N)N)C(=O)NCC(=O)N[C@@H](Cc1ccccc1)C(=O)N[C@H](C(=O)N[C@@H](C)C(N)=O)CSCCC3=O [Example 67, RTDETG-(SEQ ID NO: 38)-A]	75 nM
CC(C)C[C@@H]1NC(=O)[C@H](CO)NC(=O)[C@@H]2CCCN2C(=O)[C@@H](NC(=O)[C@H](C)N)CSCCC(=O)N2CN3CN(C2)C(=O)CCSC[C@H](NC(=O)[C@H]([C@@H](C)O)NC(=O)[C@H](Cc2c[nH]c4ccccc24)NC(=O)[C@@H]2CCCN2C(=O)[C@H](CC(=O)O)NC1=O)C(=O)N[C@@H](CCC(N)=O)C(=O)N[C@@H](CO)C(=O)N[C@@H](Cc1c[nH]c2ccccc12)C(=O)N[C@@H](Cc1ccc(O)cc1)C(=O)N[C@@H](CCC(=O)O)C(=O)N[C@H](C(=O)N[C@@H](C)C(N)=O)CSCCC3=O [Example 162, A-(SEQ ID NO: 120)-A]	1500 nM
CSCC[C@H](NC(=O)[C@H](CCC(=O)O)NC(=O)[C@H](CC(N)=O)NC(=O)[C@H](CC(=O)O)NC(=O)[C@H](Cc1ccc(O)cc1)NC(=O)[C@@H]1CSCCC(=O)N2CN3CN(C2)C(=O)CCSC[C@H](N)C(=O)N[C@@H](CC(=O)O)C(=O)N[C@@H](Cc2c[nH]c4ccccc24)C(=O)N[C@@H](Cc2c[nH]cn2)C(=O)N[C@@H](Cc2c[nH]c4ccccc24)C(=O)N[C@@H](CCC(=O)O)C(=O)N[C@@H](Cc2ccc(O)cc2)C(=O)N[C@@H](CC(=O)O)C(=O)N[C@@H](CSCCC3=O)C(=O)N[C@@H](Cc2c[nH]c3ccccc23)C(=O)N[C@@H](CC(C)C)C(=O)N[C@@H](CO)C(=O)N1)C(=O)N[C@@H](CO)C(N)=O [Example 223, (SEQ ID NO: 144)-YDNEMS]	3000 nM
CC(=O)N[C@H]1CSCCC(=O)N2CN3CN(C2)C(=O)CCSC[C@H](NC(=O)[C@H](CC(=O)O)NC(=O)[C@H](CCC(=O)O)NC(=O)[C@H](CC(C)C)NC(=O)[C@H](Cc2c[nH]c4ccccc24)NC(=O)[C@H](CCC(N)=O)NC1=O)C(=O)N[C@@H](Cc1c[nH]c2ccccc12)C(=O)N[C@@H](CCCNC(=N)N)C(=O)NCC(=O)N[C@@H](Cc1ccccc1)C(=O)N[C@H](C(=O)N[C@@H](C)C(=O)N1CCC[C@H]1C(=O)N[C@@H](CC(=O)O)C(=O)N[C@@H](CCC(=O)O)C(=O)N[C@@H](CCCNC(=N)N)C(=O)N[C@@H](CC(=O)O)C(N)=O)CSCCC3=O [Example 54, Ac-(SEQ ID NO: 38)-APDERD]	46 nM
CC[C@H](C)[C@@H]1NC(=O)[C@H]([C@@H](C)O)NC(=O)[C@@H](NC(=O)[C@H](C)N)CSCCC(=O)N2CN3CN(C2)C(=O)CCSC[C@H](NC(=O)[C@H](CC(=O)O)NC(=O)[C@H](CCC(=O)O)NC(=O)[C@H](CC(C)C)NC1=O)C(=O)N[C@@H](Cc1c[nH]c2ccccc12)C(=O)N[C@@H](CCSC)C(=O)NCC(=O)N[C@@H](Cc1ccccc1)C(=O)N[C@H](C(=O)N[C@@H](C)C(N)=O)CSCCC3=O [Example 150, A-(SEQ ID NO: 109)-A]	1500 nM
CC(C)C[C@@H]1NC(=O)[C@H](Cc2c[nH]c3ccccc23)NC(=O)[C@H](Cc2c[nH]c3ccccc23)NC(=O)[C@H](CC(=O)O)NC(=O)[C@@H]2CCCN2C(=O)[C@@H]2CSCCC(=O)N3CN(CN(C3)C(=O)CCSC[C@H](NC(=O)[C@H](CC(C)C)NC(=O)[C@H](CC(=O)O)NC(=O)[C@@H](N)CCCNC(=N)N)C(=O)N[C@@H]([C@@H](C)O)C(=O)N[C@@H](CC(=O)O)C(=O)N[C@@H](CC(C)C)C(=O)N[C@@H](CC(=O)O)C(=O)N3CCC[C@H]3C(=O)N[C@@H](Cc3c[nH]c4ccccc34)C(=O)N[C@@H]([C@@H](C)O)C(=O)N2)C(=O)CCSC[C@@H](C(=O)N[C@@H](C)C(N)=O)NC1=O [Example 189, RDL-(SEQ ID NO: 138)-A] (H-RDLCTDLDPWTCPDWWLCA-NH2; linker 4-12-18 via TATA; N-terminus and C-terminus assumed)	310 nM
